# Assay results published in article PMC11205865, “Unlocking the distinctive enzymatic functions of the early plant biomass deconstructive genes in a brown rot fungus by cell-free protein expression” (Applied and Environmental Microbiology, 2024).
# Key:
# [1] = tested on: T1, benzoquinone reductase (BQR), Pospl1|124517; assay: NADPH consumption during […],6-DMBQ reduction; assay type: cell-based, Rhodonia placenta; settings: 30–570 µM 2,6-DMBQ; NADPH co-substrate; FMN cofactor; crude cell-free mixture
# T1 construct: synthetic CDS in pEU-E01-MCS, wheat germ cell-free expression, crude translation mixture (sample S2), predicted 25 kDa, intracellular, no tag stated
# [2] = tested on: T2, heme-thiolate peroxidase (HTP), Pospl1|61079; assay: ABTS oxidation with H2O2; assay type: cell-based, Rhodonia placenta; settings: 50–900 µM ABTS; H2O2 as oxidant; crude cell-free mixture with hemin and nanodiscs
# T2 construct: synthetic CDS in pEU-E01-MCS, wheat germ cell-free expression with nanodiscs and hemin (S1b), crude mixture, predicted 32 kDa
# Protocol: ABTS oxidation with H2O2 on heme-thiolate peroxidase (HTP), Pospl1|61079 | Km and Vmax values for enzymes HTP, ABF, BQR, and FRD were determined
Structure (SMILES),Km [1] [µM],Km [2] [µM]
"COC1=CC(=O)C=C(OC)C1=O [2,6-DMBQ, 2,6-dimethoxy-1,4-benzoquinone]",214,
CCn1c(=NN=c2sc3cc(S(=O)(=O)O)ccc3n2CC)sc2cc(S(=O)(=O)O)ccc21 [ABTS],,142
